The text below walks through data of PubChem BioAssay (NCI).

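In this assay, cells in 96-well plates receive the compound at five concentrations for 48 hours. Endpoints are linearly interpolated between the surrounding concentrations. GI50 is the concentration that inhibits growth by half. TGI: concentration producing complete growth inhibition.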

Among the test systems are A549 NSCLC; PC-3 prostate; 786-0 renal; OVCAR-8 ovarian; HOP-62 NSCLC; SK-MEL-28 melanoma; SN12C renal; K-562 leukemia; ACHN renal; BT-549 breast.
Common to all, as to test: growth of human tumour cells (NCI), 48 h

For the molecule `CN1CCN(c2ccc(NC3=C(Cl)C(=O)c4ncccc4C3=O)cc2C#N)CC1`, the GI50 in the assay with A549 NSCLC is 17.4 µM; in the assay on PC-3 prostate, 2.29 µM; in the assay with 786-0 renal, 1.72 µM; with OVCAR-8 ovarian, 2.59 µM; in the assay with HOP-62 NSCLC, 11.8 µM; with SK-MEL-28 melanoma, 1.86 µM. Also, the GI50 was 1.55 µM in the assay on SN12C renal, 0.312 µM with K-562 leukemia, 1.15 µM in the assay with ACHN renal and 2.25 µM with BT-549 breast. Further, the TGI with A549 NSCLC was found to be 33.7 µM; in the assay with PC-3 prostate, 9.34 µM; in the assay on 786-0 renal, 3.23 µM; in the assay on OVCAR-8 ovarian, 9.37 µM; in the assay with HOP-62 NSCLC, 34.7 µM; in the assay with SK-MEL-28 melanoma it was 3.26 µM. Besides, the TGI with SN12C renal was 3.25 µM; in the assay on K-562 leukemia, more than 100 µM; in the assay with ACHN renal it was 2.36 µM; with BT-549 breast, 5.95 µM.

For the molecule `C/C1=C\C/C=C(\C)[C@H]2CC(CC/C(C)=C/CC1)[C@](C)(C=O)O2`, the GI50 is more than 100 µM in the assay with A549 NSCLC; 88.2 µM with PC-3 prostate; more than 100 µM in the assay with 786-0 renal; more than 100 µM with OVCAR-8 ovarian; 40.6 µM in the assay on HOP-62 NSCLC; more than 100 µM in the assay on SK-MEL-28 melanoma. Further, the GI50 is more than 100 µM with SN12C renal, 54.8 µM in the assay on K-562 leukemia, more than 100 µM with ACHN renal and 20.9 µM in the assay on BT-549 breast. In addition, the TGI in the assay with A549 NSCLC, in the assay on PC-3 prostate, with 786-0 renal, in the assay on OVCAR-8 ovarian, with HOP-62 NSCLC and with SK-MEL-28 melanoma was more than 100 µM throughout. Also, the TGI in the assay with SN12C renal, in the assay with K-562 leukemia, with ACHN renal and in the assay on BT-549 breast was more than 100 µM each time.

In the case of `OCC#Cc1ccccc1C#Cc1ccc(C#Cc2ccccc2C#CCO)s1`, the GI50 in the assay on A549 NSCLC was 19.1 µM; with PC-3 prostate, 14.8 µM; in the assay with 786-0 renal, 19.3 µM; with OVCAR-8 ovarian, 21.2 µM; with HOP-62 NSCLC, 22.6 µM; with SK-MEL-28 melanoma, 20.5 µM. The GI50 in the assay with SN12C renal is 20.1 µM; with K-562 leukemia it was 64 µM; in the assay with ACHN renal it was 19.1 µM; with BT-549 breast, 16.8 µM. In addition, the TGI in the assay with A549 NSCLC worked out at 41 µM; in the assay with PC-3 prostate, 28.7 µM; with 786-0 renal it was 37.7 µM; with OVCAR-8 ovarian it was 45.6 µM; in the assay with HOP-62 NSCLC, 53.7 µM; in the assay with SK-MEL-28 melanoma, 46.8 µM. Besides, the TGI was 43 µM in the assay on SN12C renal, more than 100 µM with K-562 leukemia, 43.3 µM in the assay with ACHN renal and 33.8 µM with BT-549 breast.

With `CCCCCCCCCCCCCC(=O)C(C)N` (stereo not given), the GI50 in the assay with A549 NSCLC was 8.94 µM; with PC-3 prostate, 2.64 µM; with 786-0 renal, 12.4 µM; in the assay with OVCAR-8 ovarian, 18.4 µM; with HOP-62 NSCLC it was 4.76 µM; in the assay with SK-MEL-28 melanoma it was 16.8 µM. In addition, the GI50 was 3.71 µM in the assay on SN12C renal, 2.41 µM in the assay on K-562 leukemia, 6.74 µM in the assay on ACHN renal and 15.4 µM in the assay on BT-549 breast. Moreover, the TGI is 22.5 µM in the assay on A549 NSCLC; 6.05 µM with PC-3 prostate; 26.2 µM with 786-0 renal; 36.1 µM with OVCAR-8 ovarian; 16.9 µM with HOP-62 NSCLC; 32.5 µM in the assay with SK-MEL-28 melanoma. Also, the TGI in the assay on SN12C renal is 13.3 µM; with K-562 leukemia, 11.1 µM; with ACHN renal, 20.7 µM; with BT-549 breast it was 31.1 µM.

With `Oc1c(I)cc(-c2nc3ccccc3s2)cc1CN(Cc1ccccn1)Cc1ccccn1`, the GI50 with A549 NSCLC was 0.427 µM; in the assay on PC-3 prostate it was 0.308 µM; in the assay with 786-0 renal it was 0.347 µM; in the assay on OVCAR-8 ovarian it was 0.335 µM; in the assay with HOP-62 NSCLC, 0.332 µM; in the assay on SK-MEL-28 melanoma, 0.411 µM. For the same molecule, the GI50 was 0.446 µM with SN12C renal, 0.385 µM in the assay on K-562 leukemia, 0.286 µM in the assay with ACHN renal and 0.394 µM in the assay with BT-549 breast. For the same molecule, the TGI in the assay on A549 NSCLC is more than 100 µM; in the assay on PC-3 prostate, more than 100 µM; in the assay on 786-0 renal, 2.62 µM; in the assay on OVCAR-8 ovarian it was 37.5 µM; in the assay on HOP-62 NSCLC, 68.3 µM; in the assay with SK-MEL-28 melanoma, 43 µM. Also, the TGI with SN12C renal was 11.6 µM; with K-562 leukemia, more than 100 µM; with ACHN renal it was 3.37 µM; in the assay on BT-549 breast, 29.8 µM.

As for `C[C@@H](Oc1ccc2[nH]nc(/C=C/c3cnn(CCO)c3)c2c1)c1c(Cl)cncc1Cl`, the GI50 is 0.0938 µM in the assay with A549 NSCLC; 1.41 µM in the assay with PC-3 prostate; 0.253 µM in the assay with 786-0 renal; 0.329 µM in the assay with OVCAR-8 ovarian; 0.108 µM in the assay on HOP-62 NSCLC; 1.72 µM in the assay on SK-MEL-28 melanoma. The GI50 is 0.121 µM in the assay on SN12C renal, 0.0249 µM in the assay with K-562 leukemia, 0.284 µM in the assay with ACHN renal and 0.142 µM with BT-549 breast. Moreover, the TGI was 5.79 µM in the assay on A549 NSCLC; 7.4 µM with PC-3 prostate; 2.38 µM in the assay with 786-0 renal; more than 32.1 µM in the assay on OVCAR-8 ovarian; 3.06 µM in the assay on HOP-62 NSCLC; 4.85 µM with SK-MEL-28 melanoma. In addition, the TGI was more than 100 µM with SN12C renal, more than 33.9 µM in the assay with K-562 leukemia, more than 100 µM in the assay with ACHN renal and 0.75 µM in the assay on BT-549 breast.

Take `C1=C(c2ccccc2)C(c2ccc(OCCN3CCCCC3)cc2)Oc2ccccc21` (stereo not given): the GI50 in the assay with A549 NSCLC is 2.19 µM; with PC-3 prostate, 1.79 µM; in the assay with 786-0 renal it was 1.5 µM; with OVCAR-8 ovarian it was 2.3 µM; in the assay on HOP-62 NSCLC, 1.67 µM; in the assay with SK-MEL-28 melanoma, 1.18 µM. Moreover, the GI50 with SN12C renal is 1.92 µM; in the assay on K-562 leukemia, 1.53 µM; in the assay with ACHN renal, 1.66 µM; in the assay on BT-549 breast it was 1.61 µM. Besides, the TGI in the assay with A549 NSCLC was found to be 4.76 µM; with PC-3 prostate, 3.25 µM; with 786-0 renal, 2.83 µM; with OVCAR-8 ovarian it was 5.91 µM; with HOP-62 NSCLC, 3.29 µM; in the assay with SK-MEL-28 melanoma, 2.54 µM. Further, the TGI is 3.73 µM with SN12C renal, 3.38 µM in the assay on K-562 leukemia, 3.15 µM in the assay with ACHN renal and 3.07 µM with BT-549 breast.
